Data from PubChem BioAssay AID248 (DTP/NCI, 2004).
“And” between values parts separate entries of the source, which are not always exact repeats. Identical values can stand only once. Toxic doses and inconclusive results are not listed. Cut-off read from the data, not from the text of the source: active = T/C of 150% or more; inactive = T/C below 125%.

Tested on: L1210 leukemia ip in BDF1 mice, survival T/C
Assay: NCI In Vivo Anticancer Drug Screen. Data for tumor model L1210 Leukemia (intraperitoneal) in B6D2F1 (BDF1) mice
Details: endpoint: mean survival time, higher = longer survival
Outline: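 Ratio derived from survival: compound-dosed mice over vehicle-dosed mice, all bearing a transplantable tumor.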

[1] = dose: 10.0 mg/kg/injection, schedule: Q01DX001 (ip), vehicle: saline
[2] = dose: 40.0 mg/kg/injection, schedule: Q01DX001 (ip), vehicle: saline
[3] = dose: 100.0 mg/kg/injection, schedule: Q01DX009 (ip), vehicle: saline with Tween-80
[4] = dose: 200.0 mg/kg/injection, schedule: Q01DX009 (ip), vehicle: saline with Tween-80
[5] = dose: 100.0 mg/kg/injection, schedule: Q04DX002 (ip), vehicle: saline with Tween-80
[6] = dose: 200.0 mg/kg/injection, schedule: Q04DX002 (ip), vehicle: saline with Tween-80

Measured: T/C

CC1(C)N=C(N)N=C(N)N1c1cccc(OCCCOc2cccc([N+](=O)[O-])c2)c1
inactive: dose: 5.0 mg/kg/injection, schedule: Q01DX001 (ip), vehicle: saline 100 % of control | [1] 97 % of control | dose: 20.0 mg/kg/injection, schedule: Q01DX001 (ip), vehicle: saline 97 % of control | [2] 100 % of control | dose: 80.0 mg/kg/injection, schedule: Q01DX001 (ip), vehicle: saline 95 % of control

CC(=O)OC(C)(C)Cc1ccccc1
inactive: [3] 90 % of control | [4] 108 % of control

BrC1C=CC=CN1C/C=C/CN1C=CC=CC1Br (configuration not stated)
inactive: dose: 75.0 mg/kg/injection, schedule: Q01DX001 (ip), vehicle: saline 96 % of control | dose: 150.0 mg/kg/injection, schedule: Q01DX001 (ip), vehicle: saline 97 % of control

O=C(COc1cc(Cl)c(Cl)cc1Cl)Nc1ccc(Cl)cc1
inactive: dose: 100.0 mg/kg/injection, schedule: Q04DX002 (ip), vehicle: Klucel (hydroxypropylcellulose) (HPC) 103 % of control | dose: 200.0 mg/kg/injection, schedule: Q04DX002 (ip), vehicle: Klucel (hydroxypropylcellulose) (HPC) 106 % of control | dose: 400.0 mg/kg/injection, schedule: Q04DX002 (ip), vehicle: Klucel (hydroxypropylcellulose) (HPC) 103 % of control

C1CN1P1(N2CC2)=NP(N2CC2)(N2CC2)=NP(N2CC2)(N2CC2)=NP(N2CC2)(N2CC2)=N1
inactive: dose: 4.4 mg/kg/injection, schedule: Q04DX003 (ip), vehicle: saline 114 % of control | dose: 6.6 mg/kg/injection, schedule: Q04DX003 (ip), vehicle: saline 116 % of control | [1] 118 % of control | dose: 10.0 mg/kg/injection, schedule: Q04DX003 (ip), vehicle: saline 119 % of control | dose: 20.0 mg/kg/injection, schedule: Q04DX003 (ip), vehicle: saline 117 % of control | [2] 124 % of control | dose: 40.0 mg/kg/injection, schedule: Q04DX003 (ip), vehicle: saline 109 % of control

O=C1c2cc(-c3ccccc3)c(-c3ccccc3)cc2C(c2ccccc2)(c2ccccc2)C1(Cl)Cl
inactive: dose: 50.0 mg/kg/injection, schedule: Q01DX009 (ip), vehicle: saline with Tween-80 100 % of control | [3] 100 % of control | [4] 95 % of control

CCC(C(C)C)C1NC1C(C)C1CCC2C3CC=C4CC(OC(C)=O)CCC4(C)C3CCC12C (configuration not stated)
inactive: dose: 100.0 mg/kg/injection, schedule: Q04DX003 (sc), vehicle: steriod suspending solution 105 % of control | dose: 200.0 mg/kg/injection, schedule: Q04DX003 (sc), vehicle: steriod suspending solution 103 % of control | dose: 400.0 mg/kg/injection, schedule: Q04DX003 (sc), vehicle: steriod suspending solution 97 % of control

COc1cccc(/C(C#N)=C\O)c1
inactive: [5] 104 % of control | [6] 96 % of control

NC(=S)Nc1cccc(Cl)c1
inactive: dose: 25.0 mg/kg/injection, schedule: Q04DX003 (ip), vehicle: Klucel (hydroxypropylcellulose) (HPC) 96 % of control | dose: 50.0 mg/kg/injection, schedule: Q04DX003 (ip), vehicle: Klucel (hydroxypropylcellulose) (HPC) 100 % of control | dose: 100.0 mg/kg/injection, schedule: Q04DX003 (ip), vehicle: Klucel (hydroxypropylcellulose) (HPC) 106 % of control

Cc1ccc(Cl)cc1NC(=O)Nc1ccc(N(C)C)cc1
inactive: dose: 100.0 mg/kg/injection, schedule: Q01DX001 (ip), vehicle: saline with Tween-80 92 % of control | [3] 87 % of control and 90 % of control | [5] 95 % of control and 90 % of control | dose: 100.0 mg/kg/injection, schedule: Q04DX003 (ip), vehicle: saline with Tween-80 92 % of control | dose: 200.0 mg/kg/injection, schedule: Q01DX001 (ip), vehicle: saline with Tween-80 87 % of control | [4] 89 % of control and 90 % of control | [6] 98 % of control and 87 % of control | dose: 200.0 mg/kg/injection, schedule: Q04DX003 (ip), vehicle: saline with Tween-80 92 % of control | dose: 400.0 mg/kg/injection, schedule: Q01DX001 (ip), vehicle: saline with Tween-80 87 % of control | dose: 400.0 mg/kg/injection, schedule: Q01DX009 (ip), vehicle: saline with Tween-80 97 % of control and 91 % of control | dose: 400.0 mg/kg/injection, schedule: Q04DX002 (ip), vehicle: saline with Tween-80 87 % of control | dose: 400.0 mg/kg/injection, schedule: Q04DX003 (ip), vehicle: saline with Tween-80 89 % of control

NC(=O)c1ccc[n+](CCc2nc(N)c3[nH]cnc3n2)c1
inactive: dose: 50.0 mg/kg/injection, schedule: Q04DX003 (ip), vehicle: saline 97 % of control | dose: 100.0 mg/kg/injection, schedule: Q04DX003 (ip), vehicle: saline 97 % of control | dose: 200.0 mg/kg/injection, schedule: Q04DX003 (ip), vehicle: saline 103 % of control

CCCCCCCCCCCC(=O)OCCOCCOCCOCCOCCOCCOCCOCCOCCO
inactive: dose: 100.0 mg/kg/injection, schedule: Q01DX001 (ip), vehicle: saline 104 % of control | dose: 200.0 mg/kg/injection, schedule: Q01DX001 (ip), vehicle: saline 98 % of control | dose: 400.0 mg/kg/injection, schedule: Q01DX001 (ip), vehicle: saline 98 % of control

COc1cccc(C2CCCCCC2OS(=O)(=O)c2ccc(C)cc2)c1OC (configuration not stated)
inactive: dose: 100.0 mg/kg/injection, schedule: Q04DX003 (ip), vehicle: acetone 110 % of control | dose: 200.0 mg/kg/injection, schedule: Q04DX003 (ip), vehicle: acetone 98 % of control | dose: 400.0 mg/kg/injection, schedule: Q04DX003 (ip), vehicle: acetone 103 % of control

CN1CCC23c4ccccc4NC1C21CCN(C)C3Nc2ccccc21
inactive: dose: 6.25 mg/kg/injection, schedule: Q01DX Z (ip), vehicle: saline 97 % of control | dose: 12.5 mg/kg/injection, schedule: Q01DX Z (ip), vehicle: saline 110 % of control | dose: 25.0 mg/kg/injection, schedule: Q01DX Z (ip), vehicle: saline 100 % of control | dose: 50.0 mg/kg/injection, schedule: Q01DX Z (ip), vehicle: saline 101 % of control | dose: 100.0 mg/kg/injection, schedule: Q01DX009 (ip), vehicle: Klucel (hydroxypropylcellulose) (HPC) 107 % of control | dose: 200.0 mg/kg/injection, schedule: Q01DX009 (ip), vehicle: Klucel (hydroxypropylcellulose) (HPC) 96 % of control
